≈ marks a conversion by molar mass, not a printed value. Where “and” joins values, the source holds several entries; their conditions need not be identical. Equal entries are not always repeated. Where two headings read alike, the source gives them in different places. Marks after values point to notes of the source that are not given here.
Experiments:
[1] = tested on: ICV STZ treated rats; assay: Single trial passive avoidance test after ICV injection of STZ; type: in vivo; conditions: for initial latency: day 19, ICV STZ rats; for mean retention latency: day 20, ICV STZ rats (STZ Control 173±28 s)
Protocol: (§1) The injection was repeated on day 3.
Memory retention deficit was evaluated by a step through passive avoidance apparatus according to the method previously described by Mojard et al. (2007) on days 19th and 20th after 1st injection of STZ. On the acquisition trial, each rat was placed in the lighted chamber and after 60 s of habituation period, the guillotine door separating the lighted and dark chamber was opened, and the initial latency (IL) to enter the dark chamber was recorded. Immediately after the rat entered the dark chamber, the guillotine door was closed and an electric foot shock (75 V, 0.2 mA, 50 Hz) was delivered to the floor grids for 3 s. Five seconds later, the rat was removed from the dark chamber and returned to its home cage. Twenty-four hours later, the retention latency (RL) time was measured in the same way as in the acquisition trial, but foot shock was not delivered, and the latency time was recorded to a maximum of 600 s.

[2] = tested on: Reduced glutathione (GSH); assay: Estimation of reduced glutathione in brain of ICV STZ rats; type: in vivo; conditions: for GSH: brain homogenate, ICV STZ rats (STZ Control 223.21 ± 6.08)
Protocol: as §1
Reduced glutathione (GSH) in the brain was estimated according to the method described by Ellman (1959). 1 ml supernatant was precipitated with 1 ml of 4% sulfosalicylic acid and cold digested at 4° C. for 1 h. The samples were centrifuged at 1200×g for 15 min at 4° C. To 1 ml of this supernatant, 2.7 ml of phosphate buffer (0.1 M, pH 8) and 0.2 ml of 5,5′-dithiobis-(2-nitrobenzoic acid) (DTNB) were added. The yellow colour developed was read immediately at 412 nm using spectrophotometer. The results were calculated using the molar extinction coefficient of chromophore (1.36×104 M−1 cm−1) and expressed as a percentage of the control.

[3] = tested on: CD3+ cell population; assay: Flow cytometric evaluation of cell-surface marker CD3+ in peripheral blood lymphocytes; type: in vivo, rats
Protocol: as §1
(§2) CD3 monoclonal antibody that reacts with the CD3 differentiation antigen expressed on MHC class I T cytotoxic cells as well as MHC class II T helper cells, was used for the determination of activated T cell populations in the blood and CD19 monoclonal antibody that reacts with CD19 antigen expressed on B cells was used for the estimation of B cell population. Tubes were incubated in dark for 30 min at room temperature. Subsequently, 2 ml of 1×FACS lyses solution was added at room temperature with gentle mixing and these samples were then spinned at (300-400×g). The supernatant was aspirated and samples were given 3 washings of phosphate buffer saline (pH 7.4). The resulting stained cell pellet was resuspended in 500 μl of phosphate buffer saline and was run on a flow cytometer. Acquisition and the analysis were done directly on flow cytometer using Cell Quest Pro software (BD Biosciences) (Bani et al., 2005, 2006).

[4] = tested on: CD19+ cell population; assay: Flow cytometric evaluation of cell-surface marker CD19+ in peripheral blood lymphocytes; type: in vivo, rats
Protocol: as §1, §2

[5] = tested on: IFN-γ; assay: Estimation of intracellular cytokine IFN-γ in CD3+ T cells; type: in vivo, rats
Protocol: as §1
Magnetic-bead Assisted Cell Sorting (MACS) separated the CD3+ T cells that were then permeabilised with 500 μl of FACS permeabilising solution (Becton Dickinson) for 10 min at room temperature. With this technique, specific cells that have antibody-coated micro beads are separated under a strong magnetic field magnetically from the whole cell suspension according to their cell-surface antigen. After centrifugation, cells were incubated with anti-rat IFN-γ-PE for 30 min in the dark at room temperature. After washing in PBS, cells were fixed in […] of 1% formaldehyde PBS. A total of 10,000-gated events were acquired in on a FACS BD LSR II flow cytometer (Bani et al., 2005, 2006) and analysis was done on flow cytometer using Cell Quest Pro software (BD Biosciences).

[6] = tested on: TNF alpha; assay: TNF alpha inhibition invitro (comparative data); type: cell-based; conditions: read-out: TNF alpha inhibition (IC50 μg/ml)
Text: (§3) The results are as tabulated below in table 2.

[7] = tested on: B16F1 mouse melanoma cells; assay: Inhibition of α-MSH induced melanogenesis in B16F1 mouse melanoma cell line; type: cell-based; conditions: B16-F1, 216 h, 0.6 nM MSH, 9 days treatment, read-out: Inhibition of MSH induced Melanin IC50
Protocol: Melanin synthesis can be directly studied in live animal cells. B16F1 mouse melanoma cells were seeded in a 6 well microtiter plate at a seeding density of 5000 cells per well in 2 ml DMEM medium per well. After 24 hours of incubation in a CO2 incubator, melanin production is induced by 0.6 nM […] by replacing the medium with medium containing […]. The cells were then treated with the compound hydroxychavicol, crude betel leaf extract and the reference standard over a period of 9 days with renewal of […] containing medium and sample at regular intervals of 3 days. Control wells were maintained without sample treatment and only with the vehicle used for sample preparation. After the incubation period, the medium was removed and the cells were scraped and washed in PBS. Thereafter, melanin was extracted by 1N NaOH in boiling water bath for 5 minutes. The absorbance of the melanin extract was read at 405 nm in a microplate reader. The inhibitory effect of the samples is calculated based on the decrease of melanin formation. The dose dependent inhibitory activity of samples is calculated and the results are expressed as IC50 values using Graphpad prism software.

[8] = tested on: Balb/C mice; conditions: mouse, in vivo, po, 1000 mg/kg
Protocol: Three female Balb/C mice, fasted 3-4 h prior to the test, were used for each step and observed individually after dosing at least once during the first 30 min, and periodically during the first 24 h, with special attention given during the first 4 h, and daily thereafter, for a total of 14 days.

[9] = tested on: Malondialdehyde (MDA); assay: Measurement of lipid peroxidation (MDA) in brain of ICV STZ rats; conditions: for MDA (LP): brain homogenate, ICV STZ rats (STZ Control 415.21 ± 10.07)
[10] = biological target: Mushroom Tyrosinase enzyme; assay: Tyrosinase inhibition; type: biochemical; conditions: 40 units Mushroom Tyrosinase, 0.7 mM L-Tyrosine disodium, 37° C.
Text: Pigmentation is a multistep process critically dependent on the functional integrity of tyrosinase, the rate-limiting enzyme in melanin synthesis. Biosynthesis of melanin is initiated by the catalytic oxidation of tyrosine to 3, 4 dihydroxy phenylalanine (dopa) by tyrosinase. Subsequent reactions happen spontaneously eventually resulting in the synthesis of melanin. Under in vitro conditions, tyrosinase enzyme acts on L-Tyrosine forming a pink colored complex. This pink color intensity formed during the reaction is quenched in the presence of the inhibitor. The assay is performed in a 96 well clear microtitre plate. The compound hydroxychavicol, crude betel leaf extract and the reference standard in suitable vehicle (PBS or 0.2% DMSO) is pre incubated with 40 units of Mushroom Tyrosinase enzyme at 37° C. for 10 minutes. The reaction is initiated by adding 0.7 mM L-Tyrosine disodium and the absorbance is read after 10 minutes of incubation at 37° C. in FluostarOptima microplate reader at 492 nm. The dose dependent inhibitory activity of samples is calculated and the results are expressed as IC50 values using Graphpad prism software.

[11] = ORAC value (comparative data); conditions: invitro; higher is better
Text: as §3

Compound: C=CCc1ccc(O)c(O)c1 [HC, Hydroxychavicol]
- initial latency ([1]; HC 0.5 mg/kg p.o.): 12.21 ± 1.42 s
- initial latency ([1]; HC 1 mg/kg p.o.): 17.33 ± 2.6 s
- mean retention latency ([1]; HC 1 mg/kg p.o.): 291.87 ± 25.66 s
- initial latency ([1]; HC 2 mg/kg p.o.): 15.92 ± 1.09 s
- mean retention latency ([1]; HC 2 mg/kg p.o.): 301.09 ± 13.67 s
- initial latency ([1]; HC 4 mg/kg p.o.): 18.21 ± 2.96 s
- GSH percentage activity against STZ Control group (stimulation) ([2]; HC 0.5 mg/kg p.o.): (61.03↑)* %
- GSH ([2]; HC 0.5 mg/kg p.o.): 359.44 ± 5.47 µg/g
- GSH percentage activity against STZ Control group (stimulation) ([2]; HC 1.0 mg/kg p.o.): (62.52↑)* %
- GSH ([2]; HC 1.0 mg/kg p.o.): 362.78 ± 6.24 µg/g
- GSH percentage activity against STZ Control group (stimulation) ([2]; HC 2.0 mg/kg p.o.): (66.52↑)* %
- GSH ([2]; HC 2.0 mg/kg p.o.): 371.69 ± 6.17 µg/g and 371.69 ± 6.117 µg/g
- GSH percentage activity against STZ Control group (stimulation) ([2]; HC 4.0 mg/kg p.o.): (67.04↑)* %
- GSH ([2]; HC 4.0 mg/kg p.o.): 372.87 ± 3.18 µg/g
- mean percentage of CD3+ cells in the lymphocyte population ([3]; HC 0.5 mg/kg p.o. (STZ Control 62.21±4.65%)): 51.19±1.78%
- mean percentage of CD3+ cells in the lymphocyte population ([3]; HC 2 mg/kg p.o. (STZ Control 62.21±4.65%)): 45.28±3.43%
- mean percentage of CD3+ cells in the lymphocyte population ([3]; HC 4 mg/kg p.o. (STZ Control 62.21±4.65%)): 44.49±4.55%
- mean percentage of CD19+ cells in the lymphocyte population ([4]; HC 0.5 mg/kg p.o. (STZ Control 27.08±2.77%)): 21.43±1.39%
- mean percentage of CD19+ cells in the lymphocyte population ([4]; HC 1 mg/kg p.o. (STZ Control 27.08±2.77%)): 17.08±2.09%
- mean percentage of CD19+ cells in the lymphocyte population ([4]; HC 2 mg/kg p.o. (STZ Control 27.08±2.77%)): 16.97±1.88%
- mean percentage of CD19+ cells in the lymphocyte population ([4]; HC 4 mg/kg p.o. (STZ Control 27.08±2.77%)): 16.01±1.07%
- expression of IFN-γ in CD3+ T cells ([5]; HC 2 mg/kg p.o. (STZ Control 18.18±0.97%)): 12.08±0.21%
- expression of IFN-γ in CD3+ T cells ([5]; HC 4 mg/kg p.o. (STZ Control 18.18±0.97%)): 11.91±0.87%
- IC50 [6]: 88.7 µg/mL (≈ 590 µM)
- IC50 [7]: 1.3 µg/mL (≈ 8.66 µM)
- untoward symptom or mortality, general behaviour [8]: No untoward symptom or any mortality
- MDA (LP) percentage activity against STZ Control group (suppression) ([9]; HC 0.5 mg/kg p.o.): (27.47↓)* %
- MDA (LP) ([9]; HC 0.5 mg/kg p.o.): 301.15 ± 6.34 nmol/mg
- MDA (LP) percentage activity against STZ Control group (suppression) ([9]; HC 1.0 mg/kg p.o.): (39.26↓)* %
- MDA (LP) ([9]; HC 1.0 mg/kg p.o.): 252.18 ± 4.08 nmol/mg
- MDA (LP) percentage activity against STZ Control group (suppression) ([9]; HC 2.0 mg/kg p.o.): (42.87↓)* %
- MDA (LP) ([9]; HC 2.0 mg/kg p.o.): 237.19 ± 3.44 nmol/mg
- MDA (LP) percentage activity against STZ Control group (suppression) ([9]; HC 4.0 mg/kg p.o.): (46.85↓)* %
- MDA (LP) ([9]; HC 4.0 mg/kg p.o.): 220.68 ± 4.32 nmol/mg

Compound: O=C1O[C@H]([C@@H](O)CO)C(O)=C1O [Ascorbic acid, reference compound]
- Tyrosinase inhibition IC50 [10]: IC50—9.33 μg/ml
- IC50 [7]: 25 µg/mL (≈ 142 µM)

Compound: C=CCc1ccc(O)c(OC)c1 [Eugenol]
- IC50 ([6]; invitro): 114 µg/mL (≈ 694 µM)
- ORAC value (μmol trolox equivalents/g) [11]: 13921 μmol trolox equivalents/g

Compound: CC=Cc1ccc(O)c(OC)c1 [Isoeugenol]
- IC50 ([6]; invitro): 515 µg/mL (≈ 3140 µM)
- ORAC value (μmol trolox equivalents/g) [11]: 15248 μmol trolox equivalents/g
